Measured values as given in article PMC10574601, “Benzophenanthridine Alkaloid Chelerythrine Elicits Necroptosis of Gastric Cancer Cells via Selective Conjugation at the Redox Hyperreactive C-Terminal Sec^498 Residue of Cytosolic Selenoprotein Thioredoxin Reductase” (Molecules, 2023).

Experiments:
[1] = biological target: T1, thioredoxin reductase 1 (TXNRD1) (Rattus norvegicus, UniProt O89049); assay: DTNB reduction assay after […] h incubation; desalting shows irreversibility; format: biochemical
T1 construct: recombinant rat TXNRD1, wild-type
T1 sequence (O89049 1-499): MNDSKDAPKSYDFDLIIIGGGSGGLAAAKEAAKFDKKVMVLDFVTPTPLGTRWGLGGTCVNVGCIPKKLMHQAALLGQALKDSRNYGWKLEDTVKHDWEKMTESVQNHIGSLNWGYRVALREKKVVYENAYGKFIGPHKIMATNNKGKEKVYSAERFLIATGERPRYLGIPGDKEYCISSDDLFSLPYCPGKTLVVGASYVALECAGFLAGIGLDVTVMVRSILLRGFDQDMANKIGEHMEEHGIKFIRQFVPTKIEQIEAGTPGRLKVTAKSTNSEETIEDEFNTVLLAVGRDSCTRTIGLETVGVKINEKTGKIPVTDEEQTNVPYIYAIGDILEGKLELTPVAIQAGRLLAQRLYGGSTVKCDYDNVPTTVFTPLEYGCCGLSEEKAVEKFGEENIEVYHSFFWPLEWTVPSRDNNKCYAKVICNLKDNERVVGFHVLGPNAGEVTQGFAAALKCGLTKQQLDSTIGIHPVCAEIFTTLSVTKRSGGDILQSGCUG

[2] = biological target: T1, thioredoxin reductase 1 (TXNRD1); assay: NADPH oxidation at […] nm with […] TXNRD1; format: biochemical

| SMILES | IC50 [1] [µM] | NADPH oxidation at 340 nm with 30 nM TXNRD1 [2] |
| --- | --- | --- |
| C[n+]1cc2c3c(ccc2c2ccc4cc5c(cc4c21)OCO5)OCO3 [San, sanguinarine] | 46.7 |  |
| O=C1C=CC(=O)c2c(O)cccc21 [juglone, 5-Hydroxy-1,4-naphthoquinone] |  | juglone, a substrate of TXNRD1, exhibited strong NADPH oxidation |
| COc1ccc2c(c[n+](C)c3c4cc5c(cc4ccc23)OCO5)c1OC [Che, chelerythrine] | 65.9 |  |
